What was measured:
[1] = test system: Cdc42, Rab2, Rab7, activated Rac1Q61L, Rac1, and H-Ras; assay: Multiplexed primary screen, fluorescent GTP binding; settings: 10 μM compound
Method: Multiplex screening was performed by measuring GTP-binding activities of six GTPases (Cdc42, Rab2, Rab7, activated Rac1Q61L, Rac1, and H-Ras) simultaneously using special glutathione (GSH) bead sets having varied fluorescence intensities at a fixed wavelength^38. Individual GST-GTPase chimeras were tested against approximately 200,000 small molecules from the Molecular Libraries Small Molecule Repository (MLSMR). Results of fluorescent GTP-binding from the entire primary screen are summarized in the open access Pubchem database as required for projects conducted under the Roadmap Initiative (AID 757-761, 764). […] In total 1877 compounds/194,635 were identified as activators or inhibitors in the primary screen. On the order of 100-500 compounds were found active per GTPase target, enabling an unprecedented, comprehensive evaluation of small molecules active against various Ras-related GTPase family members. Here we report one compound active specifically on Cdc42 and structure activity relationships determined through chemical synthesis.
Multiplex analysis of small GTPases, were performed as we have described previously {Surviladze, 2009}. […] Flow cytometric light scatter and fluorescence emission at 530+/−20 nm (FL1) and 665+/−10 nm (FL8) were collected on a Cyan ADP flow cytometer (Beckman Coulter, Fullerton, Calif.). The resulting time-dependent data (one file per plate) were analyzed using IDLQuery software to determine the compound activity in each well. […] Gating based on FL8 emission distinguishes the beads coated with different proteins, and the median fluorescence per bead population was calculated. […]
For detection of GTP binding to small G-proteins we used bead-based multiplex flow cytometry assay {Surviladze, 2009}. […] Six individual GST-GTPases representative of Rho, Ras and Rab branches of the Ras-related GTPase family (Cdc42 wt, Rac1 wt, Rac1Q61L, Rab2 wt, Rab7 wt, and H-Ras wt) were first bound to GSH-beads of a particular fluorescence intensity. […]

wild-type Cdc42 = molecular target: T1, wild-type Cdc42 (Homo sapiens, UniProt P60953); assay: Equilibrium binding assay of BODIPY-FL-GTP; settings: 1.5 nM substrate, 1 mM MgCl2; read-out: IC50, inhibition of fluorescent GTP binding to Cdc42 wt
T1 construct: purchased Cytoskeleton
Method: Changes in GTP binding affinity (Kd) and Bmax in the presence of a given compound were measured in multiplex (Cdc42, Cdc42Q61L, Rab2, Rab7, H-Ras and H-RasG12V) and single-plex formats (Rac1, Rac1Q61L and GST-GFP). GTPases and the GST-GFP control were individually bound to glutathione beads overnight at 4° C., washed with HPSE buffer, then resuspended together or assayed individually in the same buffer containing DTT and BSA. Bound GTPases were analyzed by mixing 5 μl protein-bound beads with 2.5-100 nM BODIPY-GTP in a total volume of 10 μl and incubating with rotation at 4° C. for 90 min. DMSO controls and samples treated with 10 μM of each test compound were run in parallel. Bound fluorescent nucleotide was measured using a Cyan ADP flow cytometer. Data were converted to ASCII format using IDLeQuery, exported and analyzed using Prism (GraphPad Software, Inc., San Diego, Calif.) non-linear, one-site binding.
Wild-type GST-Cdc42 (4 μM) was bound to GSH-beads overnight at 4° C. Cdc42 on GSH-beads was depleted of nucleotide by incubating with 10 mM EDTA containing buffer for 20 min at 30° C., washing twice with NP-HPS buffer, then re-suspended in the same buffer containing 1 mM EDTA/or 1 mM MgCl2, 1 mM DTT and 0.1% BSA. […] Samples incubated at 4° C. for 45 min and binding of fluorescent nucleotide to enzyme measured using an Accuri flow cytometer. […]

T1 sequence (P60953 whole entry): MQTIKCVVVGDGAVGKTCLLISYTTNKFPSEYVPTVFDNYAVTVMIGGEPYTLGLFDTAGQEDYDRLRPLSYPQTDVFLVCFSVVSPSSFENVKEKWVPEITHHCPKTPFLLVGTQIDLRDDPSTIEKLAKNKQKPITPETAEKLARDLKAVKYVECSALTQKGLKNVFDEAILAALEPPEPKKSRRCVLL

`COc1ccc(C2CC(c3ccccc3)=NN2c2ccc(S(N)(=O)=O)cc2)cc1` (centres unmarked) [MLS000693334, 4-[3-(4-methoxyphenyl)-5-phenyl-3,4-dihydropyrazol-2-yl]benzenesulfonamide] was tested, and the “Outcome of primary screening” value [1] was “specific inhibitors” and the IC50 (wild-type Cdc42) was 0.2 µM.

From patent US9642835B2, “Modulators of GTPase and use in relevant treatment” (STC.UNM, priority 2010, dated 2017)
